Measured values published in patent publication US20240245617A1, “LIPID-BASED TOPICAL INJECTION FORMULATIONS” (Beijing Jitai Pharmaceutical Technology Co., Ltd., priority 2022, published 2024).

These molecules were tested on C57BL/6 mice (assay: In vivo bioluminescence after intravenous administration of lipid nanoparticles encapsulating luciferase mRNA). Conditions: 0.5 mg/kg mRNA, liver.
Procedure: The delivery effect and safety of nanoparticles encapsulating luciferase mRNA (Trilink, L-7202) in mice were evaluated. The test mice were SPF-grade C57BL/6 mice, female, 6-8 weeks old, weighing 18-22 g, and were purchased from SPF (Beijing) Biotechnology Co., Ltd. All animals were acclimatized for more than 7 days prior to the experiment, and had free access to food and water during the experiment. The conditions include alternating light and dark for 12/12 h, the indoor temperature of 20-26° C. and the humidity of 40-70%. The mice were randomly grouped. The lipid nanoparticles encapsulating luciferase mRNA prepared above were injected into mice by intravenous administration at a single dose of 0.5 mg/kg mRNA, and the mice were subjected to in vivo bioluminescence assay using a Small Animal In Vivo Imaging System (IVIS LUMINA III, purchased from PerkinElmer) at 6 h after administration. The assay was performed as follows: D-luciferin solution was prepared in saline at a concentration of 15 mg/mL, and each mouse was given the substrate by intraperitoneal injection. At ten minutes after administration of the substrate, the mice were anesthetized in an anesthesia chamber with isoflurane at a concentration of 2.5%. […] Data acquisition and analysis were performed on the liver.
The in vivo delivery efficiency of lipid nanoparticle carriers was expressed as the mean values of fluorescence intensity and total photon count in different animals within the same subject group, as shown in Table 4. Higher values of fluorescence intensity and total photon count indicate higher in vivo delivery efficiency of this mRNA fragment by lipid nanoparticles. The lipid nanoparticles containing the cationic lipids of the present disclosure have good in vivo delivery efficiency and mainly target the liver.

SMILES	Total photon count in vivo at 6 hours after administration (Total Flux)
CCCCCCCC#CCOC(=O)C(C)(C)CCCCCC(CCCCCC(C)(C)C(=O)OCCCC(CCCCC)CCCCC)OC(=O)CCCN(C)C (centres unmarked) [Compound 115]	2.56E+10
CCCCCCCCCCOC(=O)C(C)(C)CCCCCC(CCCCCC(C)(C)C(=O)OCCCCCCCCCC)OC(=O)CCCN(C)C [Compound 18]	1.14E+10
CCCCCCCCOC(=O)C(C)(C)CCCCCC(CCCCCC(C)(C)C(=O)OCCCCCCCC)OC(=O)C1CCN(C(C)C)CC1 [Compound 101]	5.19E+09
CCCCCCCCCOC(=O)C(C)(C)CCCCCC(CCCCCC(C)(C)C(=O)SCCCCCCCCC)OC(=O)CCCN(C)C (centres unmarked) [Compound 41]	2.19E+10
CCCCCCC/C=C\COC(=O)CC(C)(C)CCCCC(CCCCC(C)(C)CC(=O)OCC(CCCCC)CCCCCCC)OC(=O)CCCN(C)C (centres unmarked) [Compound 98]	2.12E+10
CCCCCCCCCCOC(=O)C(C)(C)CCCCC(CCCCC(C)(C)C(=O)OCC(CCCCC)CCCCCCC)OC(=O)CCCN(C)C (centres unmarked) [Compound 123]	>4.00E+10
CC/C=C\CCCCCOC(=O)C(C)(C)CCCCCC(CCCCCC(C)(C)C(=O)OCCCCC/C=C\CC)OC(=O)CCN(C)C [Compound 7]	1.16E+08
CCCCCCCCOC(=O)C(C)(C)CCCCCC(CCCCCC(C)(C)C(=O)OCCCCCCCC)OC(=O)C1CCN(C)CC1 [Compound 100]	1.18E+10
CCCCCCCCCSC(=O)C(C)(C)CCCCCC(CCCCCC(C)(C)C(=O)SCCCCCCCCC)OC(=O)C1CCN(C)CC1 [Compound 106]	1.85E+10
CCCCCCCCCCNC(=O)C(C)(C)CCCCCC(CCCCCC(C)(C)C(=O)NCCCCCCCCCC)OC(=O)CCN(C)C [Compound 8]	3.26E+07
CCCCCCCCCOC(=O)C(C)(C)CCCCCC(CCCCCC(C)(C)C(=O)OCCCCCCCCC)OC(=O)C1CCN(C)CC1 [Compound 102]	2.03E+10
CCCCCCCCOC(=O)C(C)(C)CCCCCC(CCCCCC(C)(C)C(=O)OCCCCCCCC)OC(=O)CCCN(C)C [Compound 19]	3.20E+09
CCCCCCCCCOC(=O)C(C)(C)CCCCCC(CCCCCC(C)(C)C(=O)OCC(CCCCC)CCCCCCC)OC(=O)CCCN(C)C (centres unmarked) [Compound 46]	>4.00E+10
CCCCCCC/C=C\COC(=O)C(C)(C)CCCCCC(CCCCCC(C)(C)C(=O)OC/C=C\CCCCCCC)OC(=O)CCCN(C)C [Compound 26]	>4.00E+10
CCCCCCCCCCOC(=O)C(C)(C)CCCCCC(CCCCCC(C)(C)C(=O)OCCCCCCCCCC)OC(=O)CN1CCOCC1 [Compound 91]	1.29E+06
CCCCCCCC#CCOC(=O)C(C)(C)CCCCCC(CCCCCC(C)(C)C(=O)OCC(CCCCC)CCCCCCC)OC(=O)CCCN(C)C (centres unmarked) [Compound 116]	>4.00E+10
CCCCCCCCCSC(=O)C(C)(C)CCCCCC(CCCCCC(C)(C)C(=O)OCC(CCCCC)CCCCCCC)OC(=O)CC1CCN(C)CC1 (centres unmarked) [Compound 112]	3.53E+10
CCCCCCCCCSC(=O)C(C)(C)CCCCCC(CCCCCC(C)(C)C(=O)SCCCCCCCCC)OC(=O)CCCN(C)C [Compound 37]	7.88E+09
CCCCC#CCCCCOC(=O)C(C)(C)CCCCCC(CCCCCC(C)(C)C(=O)OCCCCC#CCCCC)OC(=O)CCCN(C)C [Compound 25]	1.89E+08
CCCCCCCCCCSC(=O)C(C)(C)CCCCCC(CCCCCC(C)(C)C(=O)OCCCCCCCCC)OC(=O)CCCN(C)C (centres unmarked) [Compound 40]	4.22E+09
CCCCCCCCCCOC(=O)C(C)(C)CCCCCC(CCCCCC(C)(C)C(=O)OCCCCCCCCCC)OC(=O)CN(C)C [Compound 17]	6.77E+05
CCCCCCCCCOC(=O)C(C)(C)CCCCCC(CCCCCC(C)(C)C(=O)OCCCCCCCCC)OC(=O)CCN(C)C [Compound 3]	1.75E+09
CCCCCCCCCOC(=O)CCCCCCC(CCCCCCC(=O)OCCCCCCCCC)OC(=O)CCCN(C)C [Compound 130]	4.45E+07
CCCCCCCCCOC(=O)C(C)(C)CCCCCC(CCCCCC(C)(C)C(=O)OCCCCCCCCC)OC(=O)CCCN(C)C [Compound 20]	2.40E+10

SMILES	Total photon count in vivo at 6 hours after administration (Total Flux)
CCCCCCC#CCOC(=O)C(C)(C)CCCCCC(CCCCCC(C)(C)C(=O)OCCCCCCCCC)OC(=O)CCCN(C)C (centres unmarked) [Compound 42]	5.32E+09
CCCCCCCCCOC(=O)C(C)(C)CCCCCC(CCCCCC(C)(C)C(=O)OCCCCCCCCC)OC(=O)C1CCN(C(C)C)CC1 [Compound 103]	5.69E+09
CCCCCCCCOC(=O)C(C)(C)CCCCCC(CCCCCC(C)(C)C(=O)OCCCCCCCC)OC(=O)CCN(C)C [Compound 2]	4.23E+08
CCCCCCCCCNC(=O)C(C)(C)CCCCCC(CCCCCC(C)(C)C(=O)NCCCCCCCCC)OC(=O)CCN(C)C [Compound 9]	6.05E+06
CCCCCCCCCCOC(=O)C(C)(C)CCCCCC(CCCCCC(C)(C)C(=O)OCCCCCCCCCC)OC(=O)CCN1CCOCC1 [Compound 90]	1.04E+07
CCCCCCCCCCOC(=O)C(C)(C)CCCCCC(CCCCCC(C)(C)C(=O)OCCCCCCCCCC)OC(=O)CCN1CCCC1 [Compound 92]	2.13E+09
CCCCCC/C=C\CCOC(=O)C(C)(C)CCCCCC(CCCCCC(C)(C)C(=O)OCC/C=C\CCCCCC)OC(=O)CCCN(C)C [Compound 27]	2.20E+10
CCCCCCCCCOC(=O)C(C)(C)CCCCC(CCCCC(C)(C)C(=O)OCC(CCCCC)CCCCCCC)OC(=O)CCCN(C)C (centres unmarked) [Compound 122]	>4.00E+10
CCCCCCCCCCCCNC(=O)C(C)(C)CCCCCC(CCCCCC(C)(C)C(=O)NCCCCCCCCCCCC)OC(=O)CCN(C)C [Compound 10]	1.26E+09
CCCCCCCCCOC(=O)CCCCCCC(CCCCCCC(=O)OCC(CCCCC)CCCCCCC)OC(=O)CCCN(C)C (centres unmarked) [Compound 131]	1.57E+09
CCCCCCCC#CCOC(=O)C(C)(C)CCCCCC(CCCCCC(C)(C)C(=O)OCC#CCCCCCCC)OC(=O)CCCN(C)C [Compound 23]	1.43E+10
CCCCCCCCCOC(=O)C(C)(C)CCCCCC(CCCCCC(C)(C)C(=O)OCCCCCCCCC)OC(=O)CCCCCN(C)C [Compound 32]	7.30E+09
CCCCCCCCCOC(=O)C(C)(C)CCCCCCC(CCCCCCC(C)(C)C(=O)OCC(CCCCC)CCCCCCC)OC(=O)CCCN(C)C (centres unmarked) [Compound 125]	1.99E+10
CCCCCCCCCCSC(=O)C(C)(C)CCCCCC(CCCCCC(C)(C)C(=O)SCCCCCCCCCC)OC(=O)CCN(C)C [Compound 33]	2.12E+08
CCCCCCCC(CCCCCCC)COC(=O)CCC(C)(C)CCCC(CCCC(C)(C)CCC(=O)OCC(CCCCCCC)CCCCCCC)OC(=O)CCCN(C)C [Compound 129]	7.82E+09
CCCCCCCCC(CCCCCCCC)NC(=O)C(C)(C)CCCCCC(CCCCCC(C)(C)C(=O)NC(CCCCCCCC)CCCCCCCC)OC(=O)CCN(C)C [Compound 11]	4.42E+06
CC(C)CCCC(C)CCOC(=O)C(C)(C)CCCCCC(CCCCCC(C)(C)C(=O)OCCC(C)CCCC(C)C)OC(=O)CCN(C)C (centres unmarked) [Compound 6]	2.25E+09
CCCCCCCCCOC(=O)C(C)(C)CCCCCC(CCCCCC(C)(C)C(=O)OCC#CC(CCCCCC)CCCCCC)OC(=O)CCCN(C)C (centres unmarked) [Compound 118]	3.14E+10
CCCCC(CC#CCOC(=O)C(C)(C)CCCCCC(CCCCCC(C)(C)C(=O)OCC#CCC(CCCC)CCCC)OC(=O)CCCN(C)C)CCCC [Compound 117]	4.48E+09
CCCCCCC(CCCCCC)CCOC(=O)CCC(C)(C)CCCC(CCCC(C)(C)CCC(=O)OCCC(CCCCCC)CCCCCC)OC(=O)CCCN(C)C [Compound 128]	1.00E+10
CCCCCCCCCCSC(=O)C(C)(C)CCCCCC(CCCCCC(C)(C)C(=O)SCCCCCCCCCC)OC(=O)CCCN(C)C [Compound 34]	1.26E+10
CCCCCCCCCCSC(=O)C(C)(C)CCCCCC(CCCCCC(C)(C)C(=O)SCCCCCCCCCC)OC(=O)C1CCN(C)CC1 [Compound 104]	2.61E+10
CCCCCCCCCOC(=O)C(C)(C)CCCCCC(CCCCCC(C)(C)C(=O)OCC(CCCCC)CCCCCCC)OC(=O)CC1CCN(C)CC1 (centres unmarked) [Compound 111]	1.79E+10
